Columns and labels:
MDA-MB-231 cells = experiment: Wound-healing assay (cell migration); assay type: cell-based, human; conditions: 3h at its IC50 value
Protocol: Thus, its ability to prevent the migration of MDA-MB-231 was tested by means of the wound-healing assay. Confluent monolayers of cells were cultivated and plated before being scraped to create a wound (see Experimental Section) and treated with compound 3h at concentrations corresponding to its IC50 value (Table 2) for 24 and 48 h, or DMSO (Ctrl). These distinct endpoint times were experimentally defined since MDA-MB-231 cells have a high growth rate and frequently give rise to metastases in vivo. In fact, 48 h were sufficient for the wound closure in the control cells, treated using only the vehicle.
Confluent monolayers of MDA-MB-231 cells formed after the cells were plated on twelve-well plates and grown in full media. […] A cell imager microscope (JuLi Smart fluorescence, NanoEnTek Inc., Seoul, Republic of Korea) was used to take the pictures. The percentage of wound closure used to express the cell migration toward the wounds was: wound closure%=[(At0−At∆h)÷[…]]×100% for which At0 is the area of wound measured immediately after scratching and At∆h is the area of wound measured 48 h after scratching. […] The collected images were analyzed with the JuLI^TM smart fluorescent cell viewer (NanoEnTek Inc., Seoul, Republic of Korea).
Figure 3 Wound-healing assay conducted on MDA-MB-231 cells treated with compound 3h or vehicle (Ctrl, DMSO). […] (B): quantitative analysis of wound closure. […]

BALB/3T3 cells [1] = experiment: ROS protection assay (DCFH-DA, H2O2-induced); assay type: cell-based, mouse; conditions: 160 μM, BALB/3T3, DCFH-DA
Protocol: (§1) Cells were treated for 24 h, and N-acetylcystein (NAC), a compound well-known for its antioxidant capacity, was used as a reference molecule. […] Compound 3h was able to reduce ROS formation by 61.4 ± 2% at the maximum concentration of 160 μM in the BALB/3T3 cells, as shown by the quantification of fluorescence intensity, proving compound 3h to be a good ROS scavenger.
ROS production was detected using the oxidation-sensitive fluorescent probe 2′,7′-dichlorodihydrofluorescein diacetate (DCFH-DA, D6665; Sigma-Aldrich, St. Louis, MO, USA) by modifying the method described by Wang and James. A black 96-well cell culture plate (Costar, Sigma Aldrich, St. Louis, MO, USA) was used to seed viable cells. After 24 h, the cells were treated with different concentrations of compound 3h (0.1–160 µM) for 1 h at 37 °C in 5% CO2. At the end of the treatment, cells were incubated with 2′,7′-dichlorofluorescein diacetate (DCFH-DA) for 30′, used at a concentration of 25 µM, in 5% CO2. […] The formation of fluorescent dichlorofluorescein (DCF), due to the oxidation of DCFH in the presence of ROS, was read at 530 nm using a microplate reader, the Tecan Infinite M1000 Pro (Tecan, Cernusco S.N., Italy), and DMSO medium was used for control cells. The data were analyzed for statistical significance (p < 0.0001) using a one-way ANOVA, followed by Dunnett’s test performed by GraphPad Prism 9. […]

BALB/3T3 cells [2] = experiment: MTT assay, BALB/3T3 fibroblasts; assay type: cell-based; conditions: mouse fibroblasts, read-out: IC50 BALB/3T3 (MTT, lack of toxicity)
Protocol: as §1
The four cell lines used in this work (MCF-7, MDA-MB-231, MCF-10A, and 3T3-L1) were obtained from the American Type Culture Collection (ATCC, Manassas, VA, USA). All cell lines were maintained at 37 °C in a humidified atmosphere of 95% air and 5% CO2 and periodically screened for contamination. […]
Cell viability was evaluated by means of the 3-(4,5-dimethylthiazol-2-y1)-2,5-diphenyltetra zolium bromide (MTT, Sigma-Aldrich, Milan, Italy) assay. […] Cells were lysed with DMSO after 2 h of incubation at 37 °C, and optical density at 570 nm was then determined with a microplate reader. Using GraphPad Prism 9 software (GraphPad Inc., San Diego, CA, USA), the mean absorbance for each sample was expressed as a percentage over the control and plotted vs. drug concentrations to establish the IC50 values. […]

Structure (SMILES): O=C1c2ccccc2C(=O)N1c1nc2ccc(Oc3ccccc3)cc2s1 [3h, 2-[6-Phenoxy-1,3-benzothiazol-2-yl]-1H-isoindole-1,3(2H)-dione]
- prevention of total wound closure, 24 h (MDA-MB-231 cells; 24 h): ~ 23%
- prevention of total wound closure, 48 h (MDA-MB-231 cells; 48 h): ~ 26%
- reduction of ROS formation (BALB/3T3 cells [1]): 61.4 ± 2%
- IC50 (BALB/3T3 cells [2]): > 200 µM

From paper PMC10740580, “Benzothiazole-Phthalimide Hybrids as Anti-Breast Cancer and Antimicrobial Agents” (Antibiotics, 2023)
